The structures appear in SMILES notation.

This series can be described thus: Toxicity against Artemia salina. In kind it is organism-based. The following applies: in vivo, read-out: LD50 (the source's name).
Turning to `C[C@H]1CCCCCCCN2C=[N+](CCC2)C1` [HALICLORENSIN B], the LC50 is 2200 µM.

As for `C[C@H]1CCCCCCCCCCCCCNC1` [HALICLORENSIN C], the LC50 stood at 2100 µM.

As to `C[C@H]1CCCCCCCN(CCCn2cc(-c3c(O)c(O)cc4ncccc34)c(-c3c(O)c(O)cc4ncccc34)c2)C1` [ISOHALITULIN], the LC50 worked out at 900 µM.

The values above are taken from ChEMBL document CHEMBL1153721, “Isohalitulin and haliclorensins B and C, three marine alkaloids from Haliclona tulearensis” (J Nat Prod, 2010).
